Literature values in US20170224835A1, “Antibody Drug Conjugates” (priority 2015, published 2017).
Like-named read-outs stand apart in the source and are kept apart here.

Key:
[1] = in vitro

| SMILES | cytotoxicity / cell killing compared with other anthracyclines [1] | efficacy in in vivo tumor models (in vivo tumor models) | cytotoxicity / cell killing compared with other anthracyclines ([1]; listed as PNU (159682)) |
| --- | --- | --- | --- |
| COc1cccc2c1C(=O)c1c(O)c3c(c(O)c1C2=O)C[C@@](O)(C(=O)CO)C[C@@H]3O[C@H]1C[C@H](N2CCO[C@H](OC)C2)[C@H](O)[C@H](C)O1 [Nemorubicin, (8S,10S)-6,8,11-trihydroxy-10-((2R,4S,5S,6S)-5-hydroxy-4-((S)-2-methoxymorpholino)-6-methyltetrahydro-2H-pyran-2-yloxy)-8-(2-hydroxyacetyl)-1-methoxy-7,8,9,10-tetrahydrotetracene-5,12-dione] | more potent cell killing property |  |  |
| COc1cccc2c1C(=O)c1c(O)c3c(c(O)c1C2=O)C[C@@](O)(C(=O)CO)C[C@@H]3O[C@H]1C[C@H]2[C@H](O[C@@H]3[C@@H](OC)OCCN32)[C@H](C)O1 [PNU-159682, 3′-deamino-3″,4′-anhydro-[2″(S)-methoxy-3″(R)-oxy-4″-morpholinyl]doxorubicin] | significantly more cytotoxic than Nemorubicin | effective | more cytotoxic than nemorubicin and doxorubicin |
